Laboratory results published in paper PMC4049246 (The Journal of Organic Chemistry, 2014).

Tests used:
ERBB2 = ERBB2 (Homo sapiens, UniProt P04626); assay: Inhibition of NRGβ1-induced ERBB2 tyrosine phosphorylation in MCF7 cells; format: cell-based; conditions: for inhibition of NRGβ1-induced phosphorylation of ERBB2: MCF7 cells
[1] = Octanol/water partition coefficient; format: physicochemical
[2] = UV-vis absorption, fluorescence emission and lifetime in chloroform; conditions: for Δν / ε / ϕem: CHCl3; for ϕem: ±10%, perylene in cyclohexane as reference; for τ1: fluorescence lifetime component 1; for τ2: fluorescence lifetime component 2; for f1: fraction of lifetime component 1; for f2: fraction of lifetime component 2
[3] = physiologically relevant concentrations; cited from earlier work

Chain of ERBB2 (P04626 23-1255): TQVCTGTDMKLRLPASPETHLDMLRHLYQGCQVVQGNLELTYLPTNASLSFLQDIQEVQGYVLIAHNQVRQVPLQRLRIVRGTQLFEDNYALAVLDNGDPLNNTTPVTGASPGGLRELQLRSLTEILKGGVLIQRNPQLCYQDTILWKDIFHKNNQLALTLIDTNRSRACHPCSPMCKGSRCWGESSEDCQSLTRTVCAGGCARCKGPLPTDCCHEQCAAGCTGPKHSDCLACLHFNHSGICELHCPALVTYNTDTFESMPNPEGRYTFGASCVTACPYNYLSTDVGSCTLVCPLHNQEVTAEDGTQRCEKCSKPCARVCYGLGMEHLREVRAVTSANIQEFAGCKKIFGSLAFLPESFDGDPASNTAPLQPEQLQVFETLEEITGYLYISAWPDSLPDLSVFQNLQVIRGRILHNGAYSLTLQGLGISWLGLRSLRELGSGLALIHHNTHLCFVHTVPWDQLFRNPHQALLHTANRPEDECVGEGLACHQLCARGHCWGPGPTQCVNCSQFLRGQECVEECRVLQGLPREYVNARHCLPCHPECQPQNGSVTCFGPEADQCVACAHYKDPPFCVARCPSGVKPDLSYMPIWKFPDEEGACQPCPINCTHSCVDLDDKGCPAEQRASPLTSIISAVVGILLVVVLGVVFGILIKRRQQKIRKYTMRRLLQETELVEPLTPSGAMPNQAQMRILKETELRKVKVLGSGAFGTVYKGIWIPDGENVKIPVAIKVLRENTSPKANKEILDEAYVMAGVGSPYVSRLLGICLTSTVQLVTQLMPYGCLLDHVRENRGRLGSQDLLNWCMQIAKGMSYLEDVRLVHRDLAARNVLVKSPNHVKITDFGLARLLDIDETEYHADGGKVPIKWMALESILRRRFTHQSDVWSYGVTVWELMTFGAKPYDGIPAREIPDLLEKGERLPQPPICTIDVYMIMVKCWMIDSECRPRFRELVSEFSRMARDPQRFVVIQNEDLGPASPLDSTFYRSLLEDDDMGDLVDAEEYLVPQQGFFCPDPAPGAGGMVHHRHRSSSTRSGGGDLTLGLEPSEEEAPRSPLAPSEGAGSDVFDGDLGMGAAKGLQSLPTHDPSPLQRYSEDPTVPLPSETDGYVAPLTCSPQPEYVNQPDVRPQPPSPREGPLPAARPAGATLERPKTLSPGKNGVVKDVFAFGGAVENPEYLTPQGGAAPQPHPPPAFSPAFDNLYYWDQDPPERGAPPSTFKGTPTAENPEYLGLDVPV

Row | Structure (SMILES) | Ki (ERBB2) [µM] | inhibition of NRGβ1-induced phosphorylation of ERBB2 (ERBB2; 100 nM probe) | inhibition of NRGβ1-induced phosphorylation of ERBB2 (ERBB2; 10 μM probe) | log Poctanol/water [1] | Δν [2] [cm^–1] | ε [2] | ϕem [2] | τ1 [2] [ns] | τ2 [2] [ns] | f1 [2] | f2 [2] | aggregation [3]
1 | CN(C)c1ccc(-c2ccc3ncnc(Nc4ccccc4)c3c2)cc1 [1a, 6-(4-(Dimethylamino)phenyl)-N-phenylquinazolin-4-amine] | 10 | little to no inhibitory action | showed inhibition | 1.50 |  |  |  |  |  |  |  | 
2 | COc1ccc(-c2ccc3ncnc(Nc4ccccc4)c3c2)cc1 [1b, 6-(4-Methoxyphenyl)-N-phenylquinazolin-4-amine] |  |  |  |  | 9130 | 14 300 M^–1 cm^–1 | 0.02 | 1.39 | 6.76 | 0.70 | 0.30 | 
3 | O=[N+]([O-])c1ccc(-c2ccc3ncnc(Nc4ccccc4)c3c2)cc1 [1e, 6-(4-Nitrophenyl)-N-phenylquinazolin-4-amine] |  |  |  |  | 6480 | 19 700 M^–1 cm^–1 | 0.006 | 0.11 | 1.56 | 0.74 | 0.26 | 
4 | CS(=O)(=O)CCNCc1ccc(-c2ccc3ncnc(Nc4ccc(OCc5cccc(F)c5)c(Cl)c4)c3c2)o1 [lapatinib] |  |  |  |  |  |  |  |  |  |  |  | significant aggregation

Continued, in another order:

Row | Ki (ERBB2) [µM] | inhibition of NRGβ1-induced phosphorylation of ERBB2 (ERBB2; 100 nM probe) | inhibition of NRGβ1-induced phosphorylation of ERBB2 (ERBB2; 10 μM probe) | log Poctanol/water [1] | Δν [2] [cm^–1] | ε [2] | ϕem [2] | τ1 [2] [ns] | τ2 [2] [ns] | f1 [2] | f2 [2] | Structure (SMILES) | aggregation [3]
5 |  | little to no inhibitory action | showed inhibition |  |  |  |  |  |  |  |  | CN(C)c1ccc(/C=C/c2ccc3ncnc(Nc4ccccc4)c3c2)cc1 [2a, (E)-6-(4-Dimethylaminostyryl)-N-phenylquinazolin-4-amine] | 
6 |  |  |  |  | 7350 | 21 900 M^–1 cm^–1 | 0.02 | 0.05 | 1.75 | 0.11 | 0.89 | C(=C\c1ccc2ncnc(Nc3ccccc3)c2c1)/c1ccccc1 [2c, (E)-N-Phenyl-6-styrylquinazolin-4-amine] | 
7 |  | little to no inhibitory action | showed inhibition |  |  |  |  |  |  |  |  | O=[N+]([O-])c1ccc(/C=C/C=C/c2ccc3ncnc(Nc4ccccc4)c3c2)cc1 [3e, 6-((1E,3E)-4-(4-Nitrophenyl)buta-1,3-dienyl)-N-phenylquinazolin-4-amine] | 
